Measured values reported in patent US20120309798A1, “Tumour Treatment Agents and Method” (Vivolux AB, priority 2009, published 2012).
Where two headings read alike, the source gives them in different places.

How the values were obtained:
[1] = system: Ovarian carcinoma patient tumor cells (PHTC); assay: FMCA, patient tumor samples, ovarian carcinoma; assay type: cell-based, human
Excerpt: (§1) Cell culture. Patient tumor samples (98) and preparations (4) of normal peripheral blood mononuclear cells (PBMC), detailed in Table 1, were used to determine the activity of VLX50 and, for comparison, six other cytotoxic drugs chosen to represent different mechanistic classes.
(§2) The tumor samples were obtained by bone marrow/peripheral blood sampling, routine surgery or diagnostic biopsy. Leukemic cells and PBMCs were isolated by 1.077 g ml-1 Ficoll-Paque centrifugation (Larsson et al., 1992). Tumor tissue from solid tumor samples was minced into small pieces and tumor cells were isolated by collagenase dispersion followed by Percoll density gradient centrifugation (Csoka et al., 1994). The sampling of primary tumor cells was approved by the local ethics committee at Uppsala University Hospital. Cell viability was determined by trypan blue exclusion test and the proportion of tumor cells in the preparation was judged by inspection of May-Grunvald-Giemsa stained cytospin slides (FIG. 1a). All samples used in this study contained more than 70% tumor cells.
Fluorometric Microculture Cytotoxicity Assay. The Fluorometric Microculture Cytotoxicity Assay, FMCA, described in detail previously (Lindhagen et al., 2008), is based on measurement of fluorescence generated from hydrolysis of fluorescein diacetate (FDA) to fluorescein by cells with intact plasma membranes. […] The plates were incubated for 72 h and then transferred to an integrated HTS SAIGAN Core System consisting of an ORCA robot (Beckman Coulter) with CO2 incubator (Cytomat 2C, Kendro, Sollentuna, Sweden), dispensor module (Multidrop 384, Titertek, Huntsville, Ala.), washer module (ELx 405, Bio-Tek Instruments Inc), delidding station, plate hotels, barcode reader (Beckman Coulter), liquid handler (Biomek 2000, Beckman Coulter) and a multipurpose reader (FLUOstar Optima, BMG Labtech GmbH, Offenburg, Germany) for automated FMCA. Quality criteria for a successful assay included a mean coefficient of variation of less than 30% in the control and a fluorescence signal in control wells of more than 5 times the blank. […]

[2] = system: Colon cancer patient tumor cells; assay: FMCA, patient tumor samples, colon cancer; assay type: cell-based; details: Homo sapiens
Excerpt: as §1
as §2, with “The sampling of primary tumor cells was approved by the local ethics committee at Uppsala University Hospital.” left out, “All samples used in this study contained more than 70% tumor cells.” left out
(§3) Fluorometric Microculture Cytotoxicity Assay. The Fluorometric Microculture Cytotoxicity Assay, FMCA, described in detail previously (Lindhagen et al., 2008), is based on measurement of fluorescence generated from hydrolysis of fluorescein diacetate (FDA) to fluorescein by cells with intact plasma membranes. […] Quality criteria for a successful assay included a mean coefficient of variation of less than 30% in the control and a fluorescence signal in control wells of more than 5 times the blank. […]

[3] = system: Assorted tumors: one appendix cancer and one pseudomyxomo peritonei; assay: FMCA, patient tumor samples, assorted tumors; assay type: cell-based; details: Homo sapiens
Excerpt: as §1
as §2, with “The sampling of primary tumor cells was approved by the local ethics committee at Uppsala University Hospital.” left out, “All samples used in this study contained more than 70% tumor cells.” left out
as §3

[4] = system: hollow fiber cultures of PHTC from ovarian carcinoma patients; assay: In vivo hollow fiber assay, PHTC ovarian carcinoma; design: species or system human; details: two PHTC cultures in fibers s.c. in NMRI male mice, single dose 760 μg/mouse s.c., 6 days; P<0.05 and P<0.01
Description: (§4) In vivo studies. Cells from two ovarian carcinoma patients and the cell line CEM were cultured inside semi-permeable polyvinylidene fluoride fibers and assessed by the hollow fiber assay (Friberg et al., 2005; Jonsson et al., 2000). The fibers were implanted subcutaneously into NMRI male mice (Scanbur, Sollentuna Sweden), which were treated with a single dose (0.76 mg/mouse) of VLX50 subcutaneously, or vehicle only (n=animals/group). Fibers were retrieved after 6 days and cell density evaluated (FIG. 3a) using the MTT (3-[4,5-dimethylthiazol-2-yl]-2,5-diphenyltetrazolium bromide)-assay (Alley et al. 1988). The method is based on the conversion of MTT to blue formazan crystals by living cells. The formazan was extracted by DMSO as previously described (Jonsson et al. 2000), and optical density (OD) read at 570 nm. Cell density for each fiber on retrieval day was expressed as net growth, defined as (OD retrieval day—OD implantation day)/OD implantation day, i.e. the percent change in cell density in the fibers during the 6 days of in vivo experiment. The animals were observed regarding behavior and weight gain throughout the experiment. Blood samples (200 μl) were obtained through the orbital plexus after anesthetization with isofluran just before euthanasia, and analyzed for hematological parameters. […]

CCRF-CEM cell line = assay: In vivo hollow fiber assay, CCRF-CEM; details: CCRF-CEM in fibers s.c. in NMRI male mice, single dose 760 μg/mouse s.c., 6 days; P>0.05
Description: as §4

[5] = Weight gain and hematological parameters of treated mice; assay type: in vivo, NMRI male mice; details: single dose 760 μg/mouse s.c.
Description: In vivo studies. Cells from two ovarian carcinoma patients and the cell line CEM were cultured inside semi-permeable polyvinylidene fluoride fibers and assessed by the hollow fiber assay (Friberg et al., 2005; Jonsson et al., 2000). The fibers were implanted subcutaneously into NMRI male mice (Scanbur, Sollentuna Sweden), which were treated with a single dose (0.76 mg/mouse) of VLX50 subcutaneously, or vehicle only (n=animals/group). Fibers were retrieved after 6 days and cell density evaluated (FIG. 3a) using the MTT (3-[4,5-dimethylthiazol-2-yl]-2,5-diphenyltetrazolium bromide)-assay (Alley et al. 1988). The method is based on the conversion of MTT to blue formazan crystals by living cells. The formazan was extracted by DMSO as previously described (Jonsson et al. 2000), and optical density (OD) read at 570 nm. Cell density for each fiber on retrieval day was expressed as net growth, defined as (OD retrieval day—OD implantation day)/OD implantation day, i.e. the percent change in cell density in the fibers during the 6 days of in vivo experiment. The animals were observed regarding behavior and weight gain throughout the experiment. Blood samples (200 μl) were obtained through the orbital plexus after anesthetization with isofluran just before euthanasia, and analyzed for hematological parameters. Four animals were caged per cage and fed a commercial diet (Lactamin AB, Sweden), water being given ad libitum.
In vivo activity in PHTC cultures of ovarian carcinoma. Activity in vivo was determined in hollow fiber cultures of PHTC from ovarian carcinoma patients subcutaneously implanted in mice (FIG. 3a; n=8 each in test and control groups). […] There was no difference in WBC, RBC, and hemoglobin values (FIG. 3c).

MCF-7 cell cultures = assay: Effect of extracellular Fe on VLX50 induced cell death; assay type: cell-based; details: MCF-7, extracellular iron added

## COCCCNC(=S)N/N=C\c1ccccn1 [VLX50, N1-(3-methoxypropyl)-2-(pyridylmethylidene)-hydrazine-1-carbothioamide]
[1]; Homo sapiens, 72 h, n=14, 72 h FMCA, read-out: Median IC50
  IC50: < 5 µM
[1]; Homo sapiens, range over n=14 samples, read-out: IC50 Range
  IC50: 0.26 to 40 µM
[1]; n=14, 72 h FMCA, read-out: Median IC50
  IC50: 3.46 µM
[2]; n=6, 72 h FMCA, read-out: Median IC50
  IC50: > 40 µM
[2]; range over n=6 samples, read-out: IC50 Range
  IC50: 0.49 to 40 µM
[3]; n=2, 72 h FMCA, read-out: Median IC50
  IC50: 7.8 µM
[3]; range over n=2 samples, read-out: IC50 Range
  IC50: 1.6 to 13.3 µM
[4]
  Growth inhibition (net growth) compared to vehicle: significant growth inhibition
CCRF-CEM cell line
  Difference in net growth between treated group and control group: did not reach statistical significance
[5]
  Hemoglobin values: no difference
  RBC: no difference
  WBC: no difference
[5]; P<0.05
  Platelet counts: significant decrease
  Weight gain compared to the control group: small but significant reduction
MCF-7 cell cultures
  VLX50 activity on adding extracellular iron: dose-dependent decrease
